One assay relates to FaDu-MAPK1 WT xenografts. Kind of assay: Erlotinib response of isogenic FaDu tumor xenografts expressing MAPK1-WT in nude mice.
Assay [1] deals with MAPK1p.D321N mutant tumors (FaDu xenografts). Put plainly: Erlotinib response of isogenic FaDu tumor xenografts expressing MAPK1 p.D321N in nude mice.
From the text: (§1) FaDu cells expressing MAPK1 WT, MAPK1 p.D321N and MAPK1 p.R135K respectively were inoculated into nude mice subcutaneously (8×10^5 cells per inoculation). Mice with tumor expressing respective MAPK1 WT/mutations were randomized into erlotinib (erlotinib dissolved in 10% 2-Hydroxypropyl-beta-cyclodextrin (HP-j-CD) or vehicle (10% HP-β-CD) treatment groups (N=8 tumors per group). Treatment started when tumors were palpable and reached the size ˜3×3-4×4 mm^2. Erlotinib or the vehicle control were administered by oral gavage (50 mg/kg erlotinib or the corresponding vehicle amount) for 5 consecutive days as indicated by the arrows on the X-axis. FIG. 2B: IHC staining showing membranous p-EGFR expression of these xenografts post erlotinib/vehicle treatments (N>3 per group). […] FIG. 2C: IHC staining showing corresponding pan-cytokeratin expression in these tumors post erlotinib/vehicle treatment (N>3 per group).
(§2) The VECTASTAIN Elite ABC Universal PLUS Kit Peroxidase (Horse Anti-Mouse/Rabbit IgG) (Cat: PKK-8200) was used for IHC. Cytokeratin mouse antibody (DAKO, Cat: M3515, 1:500) and Anti-EGFR (phosphor Y1173) antibody [E124] (Abcam, Cat: ab32578, 1:100) were used as primary antibodies.
(§3) Isogenic FaDu cells were infected with MAPK1-WT and MAPK1 mutants by retrovirus and injected into nude mice subcutaneously (8×10^5 cell per mouse, age of 4-5 weeks). Mice injected with respective infected FaDu cells were randomized into Erlotinib treatment group or Vehicle group (2 tumors born by each mice, 4 mice per group). Treatment started at day 6 after injection with 6 dose per week until day 15. Erlotinib (dissolved in 10% HP-j-CD) or vehicle control were administered orally at a dose of 50 mg/kg. Tumor volume was monitored and calculated by the equation: length×width^2/2 repeatedly for 5 consecutive days as indicated by the arrows on the X-axis of FIG. 2(a). The mice were sacrifice at the end-point of the experiment.
Assay [2] relates to MAPK1p.R135K mutant xenografts (FaDu). Put plainly: Erlotinib response of isogenic FaDu tumor xenografts expressing MAPK1 p.R135K in nude mice.
From the text: as §1, §2, §3

From the text for FaDu-MAPK1 WT xenografts: as §1
The VECTASTAIN Elite ABC Universal PLUS Kit Peroxidase (Horse Anti-Mouse/Rabbit IgG) (Cat: PKK-8200) was used for IHC. […]
Isogenic FaDu cells were infected with MAPK1-WT and MAPK1 mutants by retrovirus and injected into nude mice subcutaneously (8×10^5 cell per mouse, age of 4-5 weeks). […] Tumor volume was monitored and calculated by the equation: length×width^2/2 repeatedly for 5 consecutive days as indicated by the arrows on the X-axis of FIG. 2(a). […]

For the compound `C#Cc1cccc(Nc2ncnc3cc(OCCOC)c(OCCOC)cc23)c1` [erlotinib], the “change in tumor size vs. vehicle control” value with FaDu-MAPK1 WT xenografts (erlotinib 50 mg/kg oral gavage, P=0.4080) was “did not result in any change in tumor size”. Also, in the assay with FaDu-MAPK1 WT xenografts (erlotinib 50 mg/kg oral, vs. vehicle control), the “change in membranous p-EGFR signal in the tumors (IHC)” value is reported as “did not result in any change”. The “tumor-negative (cytokeratin-negative) areas (IHC)” value in assay [1] (MAPK1p.D321N FaDu xenografts post erlotinib 50 mg/kg oral) is “concomitant increases in tumor-negative areas”; in assay [2] (MAPK1p.R135K FaDu xenografts post erlotinib 50 mg/kg oral) it was “noticeable increases in tumor-negative areas”. Moreover, the “membranous p-EGFR signals remaining in the tumors (IHC)” value in assay [1] (MAPK1p.D321N FaDu xenografts post erlotinib 50 mg/kg oral, untreated mutants 80-90% positive cells) is reported as “less than 20%”. In addition, the “reduction in tumor volume vs. vehicle treatment” value in assay [1] (MAPK1p.D321N FaDu xenografts, erlotinib 50 mg/kg oral gavage, P=0.0037) came out at 60.3%. The “percent tumor cells bearing membranous p-EGFR staining (IHC)” value in assay [2] (MAPK1p.R135K FaDu xenografts post erlotinib 50 mg/kg oral, 90% in vehicle treated tumors) was 50%. Moreover, in assay [2] (MAPK1p.R135K FaDu xenografts, erlotinib 50 mg/kg oral gavage, trend, P=0.0646), the “tumor size reduction vs. vehicle treatment” value turned out to be 28.0%.
